Reference: patent EP0176444A1, “Process for the preparation of derivatives of 4H-1,2,4-triazole, triazoles so obtained, their use as medicaments, and pharmaceutical compositons containing them” (ROUSSEL-UCLAF, priority 1984, dated 1986)

Columns and labels:
[1] = tested on: arthrite chronique à l'adjuvant; test: Anti-inflammatory activity: chronic adjuvant arthritis (preventive treatment); type: in vivo, rat
Experimental: L'injection d'adjuvant du type Freund dans une patte postérieure provoque, chez le rat, l'apparition rapide d'une lésion inflammatoire primaire dans cette patte, puis, après un temps de latence de 13 à 15 jours, le déclenchement d'une arthrite secondaire affectant notamment l'autre patte postérieure. Le test est pratiqué sur des rats mâles âgés de 42 à 50 jours, qui reçoivent en injection intraplantaire, 0,1 ml d'adjuvant de type "Freund" (suspension dans l'huile de vaseline de 6 mg par ml de mycobacterium butyricum tués).
Les animaux reçoivent le produit étudié, par voie orale, du jour 0 (jour de l'injection de l'adjuvant) jusqu'à la veille du sacrifice, pratiqué le jour 17. Des animaux témoins arthritiques, des animaux témoins normaux ne reçoivent que le véhicule. Les critères d'appréciation de l'activité des substances étudiées sont les augmentations de volume des pattes postérieures non injectées (inflammation secondaire) par rapport au volume moyen des pattes correspondantes de témoins normaux.
On détermine la DA50, c'est-à-dire la dose qui diminue de 50% les augmentations de volume des pattes postérieures des animaux traités par rapport aux animaux témoins.

[2] = tested on: mouvements répétés d'étirement et de torsion; test: Analgesic activity: acetic acid-induced stretching (writhing) test, Koster; type: in vivo, souris; conditions: 0.25 h; mouse, oral route half an hour before i.p. acetic acid 100 mg/kg; stretches counted for 15 min; dose giving 50 % decrease in number of stretches vs controls; read-out: DA50 (the source's name)
From the text: Le test employé est basé sur le fait signalé par R. KOSTER et Coll., (Fed. Proc. 1959, 16412) selon lequel l'injection intrapéritonéale d'acide acétique provoque, chez la souris, des mouvements répétés d'étirement et de torsion pouvant persister pendant plus de six heures. Les analgésiques préviennent ou diminuent ce syndrome qui peut être considéré comme l'extériorisation d'une douleur abdominale diffuse. On utilise une solution d'acide acétique à 1 % dans l'eau. La dose déclenchant le syndrome est dans ces conditions de 0,01 cm^3/g, soit 100 mg/kg d'acide acétique.
Le produit étudié est administré par voie buccale une demi-heure avant l'injection d'acide acétique, les souris étant à jeun depuis la veille de l'expérience.
Les étirements sont observés et comptés pour chaque souris pendant une période d'observation de quinze minutes commençant aussitôt après l'injection d'acide acétique.
Les résultats sont exprimés au moyen de la DA50, c'est-à-dire la dose qui permet d'obtenir une diminution de 50 % du nombre des étirements par rapport aux animaux témoins.

Structure (SMILES)	activité anti-inflammatoire ([1]; general statement in the description: models of chronic inflammation)	ED50 [2]	activité anti-inflammatoire (arthrite chronique à l'adjuvant) ([1]; male rats, oral route from day 0 to the day before sacrifice on day 17, volume increase of non-injected hind paws (secondary inflammation), result given in words only)
COc1ccc(-n2c(-c3ccc(N(C)C)cc3)nnc2C(C)O)cc1 (stereo not drawn) [5-/4-(diméthylamino) phényl/ 4-(4-méthoxyphényl)α-méthyl 4H-1,2,4-triazole 3-méthanol]	une certaine activité anti-infiammatoire		
COc1ccc(-n2c(-c3ccc(N(C)C)cc3)nnc2[C@H](C)O)cc1 [Exemple 11, 5-/4-(diméthylamino)-phényl/ 4-(4-méthoxyphényl)α-méthyl 4H-1,2,4-triazol-3-méthanol]		4 mg/kg	activité notable
